# Settings: human gut metagenome, 24 h, 2 µM
# Further: call rule not given here.
row,Bacterial Biotransformation,SMILES
1,Compound NOT metabolized,CC(=O)OCC(=O)[C@@]1(OC(C)=O)[C@@H](C)C[C@H]2[C@@H]3C[C@H](F)C4=CC(=O)C=C[C@]4(C)[C@@]3(F)[C@@H](O)C[C@@]21C [DIFLORASONE DIACETATE]
2,Compound NOT metabolized,CN(C)CCC=C1c2ccccc2COc2ccccc21 [DOXEPIN]

# Test: (§1) The drug is tested on WLS-069 corresponding to human gut metagenome with ENA study accession number: PRJEB37062 and ENA sample accession number: ERS12561748 for biotransformation under anaerobic condition. The drug concentrations were measured over 9 timepoints collected between 0 and 24 hours of incubation by liquid-chromatography-coupled mass spectrometry (LC–MS)
# Settings: 2 µM
row,Bacterial Biotransformation,SMILES
1,Compound metabolized,CC(=O)OCC(=O)[C@@]1(OC(C)=O)[C@@H](C)C[C@H]2[C@@H]3C[C@H](F)C4=CC(=O)C=C[C@]4(C)[C@@]3(F)[C@@H](O)C[C@@]21C [DIFLORASONE DIACETATE]
2,Compound metabolized,CN(C)CCC=C1c2ccccc2COc2ccccc21 [DOXEPIN]

# Settings: human gut metagenome, 24 h, 2 µM
# Remark: another data set of the same source
row,Bacterial Biotransformation,SMILES
1,Compound metabolized,CC(=O)OCC(=O)[C@@]1(OC(C)=O)[C@@H](C)C[C@H]2[C@@H]3C[C@H](F)C4=CC(=O)C=C[C@]4(C)[C@@]3(F)[C@@H](O)C[C@@]21C [DIFLORASONE DIACETATE]
2,Compound metabolized,CN(C)CCC=C1c2ccccc2COc2ccccc21 [DOXEPIN]

# Settings: human gut metagenome, 24 h, 2 µM
# Remark: another data set of the same source
row,Bacterial Biotransformation,SMILES
1,Compound metabolized,CC(=O)OCC(=O)[C@@]1(OC(C)=O)[C@@H](C)C[C@H]2[C@@H]3C[C@H](F)C4=CC(=O)C=C[C@]4(C)[C@@]3(F)[C@@H](O)C[C@@]21C [DIFLORASONE DIACETATE]
2,Compound metabolized,CN(C)CCC=C1c2ccccc2COc2ccccc21 [DOXEPIN]

# Settings: human gut metagenome, 24 h, 2 µM
# Remark: another data set of the same source
row,Bacterial Biotransformation,SMILES
1,Compound metabolized,CC(=O)OCC(=O)[C@@]1(OC(C)=O)[C@@H](C)C[C@H]2[C@@H]3C[C@H](F)C4=CC(=O)C=C[C@]4(C)[C@@]3(F)[C@@H](O)C[C@@]21C [DIFLORASONE DIACETATE]
2,Compound NOT metabolized,CN(C)CCC=C1c2ccccc2COc2ccccc21 [DOXEPIN]

# Test: as §1, with “Z-025” for “WLS-069”, “rabbit” for “human”, “ERS12561824” for “ERS12561748”
# Settings: 2 µM
row,Bacterial Biotransformation,SMILES
1,Compound NOT metabolized,CC(=O)OCC(=O)[C@@]1(OC(C)=O)[C@@H](C)C[C@H]2[C@@H]3C[C@H](F)C4=CC(=O)C=C[C@]4(C)[C@@]3(F)[C@@H](O)C[C@@]21C [DIFLORASONE DIACETATE]
2,Compound NOT metabolized,CN(C)CCC=C1c2ccccc2COc2ccccc21 [DOXEPIN]

# Settings: human gut metagenome, 24 h, 2 µM
# Remark: another data set of the same source
row,Bacterial Biotransformation,SMILES
1,Compound metabolized,CC(=O)OCC(=O)[C@@]1(OC(C)=O)[C@@H](C)C[C@H]2[C@@H]3C[C@H](F)C4=CC(=O)C=C[C@]4(C)[C@@]3(F)[C@@H](O)C[C@@]21C [DIFLORASONE DIACETATE]
2,Compound metabolized,CN(C)CCC=C1c2ccccc2COc2ccccc21 [DOXEPIN]

# Settings: human gut metagenome, 24 h, 2 µM
# Remark: another data set of the same source
row,Bacterial Biotransformation,SMILES
1,Compound metabolized,CC(=O)OCC(=O)[C@@]1(OC(C)=O)[C@@H](C)C[C@H]2[C@@H]3C[C@H](F)C4=CC(=O)C=C[C@]4(C)[C@@]3(F)[C@@H](O)C[C@@]21C [DIFLORASONE DIACETATE]
2,Compound metabolized,CN(C)CCC=C1c2ccccc2COc2ccccc21 [DOXEPIN]

# Test: as §1, with “Z-030” for “WLS-069”, “mouse” for “human”, “ERS12561829” for “ERS12561748”
# Settings: 2 µM
row,Bacterial Biotransformation,SMILES
1,Compound metabolized,CC(=O)OCC(=O)[C@@]1(OC(C)=O)[C@@H](C)C[C@H]2[C@@H]3C[C@H](F)C4=CC(=O)C=C[C@]4(C)[C@@]3(F)[C@@H](O)C[C@@]21C [DIFLORASONE DIACETATE]
2,Compound NOT metabolized,CN(C)CCC=C1c2ccccc2COc2ccccc21 [DOXEPIN]

# Test: as §1, with “WLS-039” for “WLS-069”, “ERS12561746” for “ERS12561748”
# Settings: 2 µM
row,Bacterial Biotransformation,SMILES
1,Compound metabolized,CC(=O)OCC(=O)[C@@]1(OC(C)=O)[C@@H](C)C[C@H]2[C@@H]3C[C@H](F)C4=CC(=O)C=C[C@]4(C)[C@@]3(F)[C@@H](O)C[C@@]21C [DIFLORASONE DIACETATE]
2,Compound metabolized,CN(C)CCC=C1c2ccccc2COc2ccccc21 [DOXEPIN]

# Settings: human gut metagenome, 24 h, 2 µM
# Remark: another data set of the same source
row,Bacterial Biotransformation,SMILES
1,Compound metabolized,CC(=O)OCC(=O)[C@@]1(OC(C)=O)[C@@H](C)C[C@H]2[C@@H]3C[C@H](F)C4=CC(=O)C=C[C@]4(C)[C@@]3(F)[C@@H](O)C[C@@]21C [DIFLORASONE DIACETATE]
2,Compound NOT metabolized,CN(C)CCC=C1c2ccccc2COc2ccccc21 [DOXEPIN]

# Test: as §1, with “WLS-038” for “WLS-069”, “ERS12561745” for “ERS12561748”
# Settings: 2 µM
row,Bacterial Biotransformation,SMILES
1,Compound metabolized,CC(=O)OCC(=O)[C@@]1(OC(C)=O)[C@@H](C)C[C@H]2[C@@H]3C[C@H](F)C4=CC(=O)C=C[C@]4(C)[C@@]3(F)[C@@H](O)C[C@@]21C [DIFLORASONE DIACETATE]
2,Compound NOT metabolized,CN(C)CCC=C1c2ccccc2COc2ccccc21 [DOXEPIN]

# Settings: human gut metagenome, 24 h, 2 µM
# Remark: another data set of the same source
row,Bacterial Biotransformation,SMILES
1,Compound metabolized,CC(=O)OCC(=O)[C@@]1(OC(C)=O)[C@@H](C)C[C@H]2[C@@H]3C[C@H](F)C4=CC(=O)C=C[C@]4(C)[C@@]3(F)[C@@H](O)C[C@@]21C [DIFLORASONE DIACETATE]
2,Compound metabolized,CN(C)CCC=C1c2ccccc2COc2ccccc21 [DOXEPIN]

# Settings: human gut metagenome, 24 h, 2 µM
# Remark: another data set of the same source
row,Bacterial Biotransformation,SMILES
1,Compound metabolized,CC(=O)OCC(=O)[C@@]1(OC(C)=O)[C@@H](C)C[C@H]2[C@@H]3C[C@H](F)C4=CC(=O)C=C[C@]4(C)[C@@]3(F)[C@@H](O)C[C@@]21C [DIFLORASONE DIACETATE]
2,Compound metabolized,CN(C)CCC=C1c2ccccc2COc2ccccc21 [DOXEPIN]

# Settings: human gut metagenome, 24 h, 2 µM
# Remark: another data set of the same source
row,Bacterial Biotransformation,SMILES
1,Compound metabolized,CC(=O)OCC(=O)[C@@]1(OC(C)=O)[C@@H](C)C[C@H]2[C@@H]3C[C@H](F)C4=CC(=O)C=C[C@]4(C)[C@@]3(F)[C@@H](O)C[C@@]21C [DIFLORASONE DIACETATE]
2,Compound metabolized,CN(C)CCC=C1c2ccccc2COc2ccccc21 [DOXEPIN]

# Test: as §1, with “Z-002” for “WLS-069”, “rabbit” for “human”, “ERS12561802” for “ERS12561748”
# Settings: 2 µM
row,Bacterial Biotransformation,SMILES
1,Compound metabolized,CC(=O)OCC(=O)[C@@]1(OC(C)=O)[C@@H](C)C[C@H]2[C@@H]3C[C@H](F)C4=CC(=O)C=C[C@]4(C)[C@@]3(F)[C@@H](O)C[C@@]21C [DIFLORASONE DIACETATE]
2,Compound NOT metabolized,CN(C)CCC=C1c2ccccc2COc2ccccc21 [DOXEPIN]

# Settings: human gut metagenome, 24 h, 2 µM
# Remark: another data set of the same source
row,Bacterial Biotransformation,SMILES
1,Compound metabolized,CC(=O)OCC(=O)[C@@]1(OC(C)=O)[C@@H](C)C[C@H]2[C@@H]3C[C@H](F)C4=CC(=O)C=C[C@]4(C)[C@@]3(F)[C@@H](O)C[C@@]21C [DIFLORASONE DIACETATE]
2,Compound NOT metabolized,CN(C)CCC=C1c2ccccc2COc2ccccc21 [DOXEPIN]

# Settings: human gut metagenome, 24 h, 2 µM
# Remark: another data set of the same source
row,Bacterial Biotransformation,SMILES
1,Compound metabolized,CC(=O)OCC(=O)[C@@]1(OC(C)=O)[C@@H](C)C[C@H]2[C@@H]3C[C@H](F)C4=CC(=O)C=C[C@]4(C)[C@@]3(F)[C@@H](O)C[C@@]21C [DIFLORASONE DIACETATE]
2,Compound NOT metabolized,CN(C)CCC=C1c2ccccc2COc2ccccc21 [DOXEPIN]

# Test: as §1, with “Z-017” for “WLS-069”, “mouse” for “human”, “ERS12561816” for “ERS12561748”
# Settings: 2 µM
row,Bacterial Biotransformation,SMILES
1,Compound metabolized,CC(=O)OCC(=O)[C@@]1(OC(C)=O)[C@@H](C)C[C@H]2[C@@H]3C[C@H](F)C4=CC(=O)C=C[C@]4(C)[C@@]3(F)[C@@H](O)C[C@@]21C [DIFLORASONE DIACETATE]
2,Compound NOT metabolized,CN(C)CCC=C1c2ccccc2COc2ccccc21 [DOXEPIN]

# Test: as §1, with “Z-001” for “WLS-069”, “mouse” for “human”, “ERS12561801” for “ERS12561748”
# Settings: 2 µM
row,Bacterial Biotransformation,SMILES
1,Compound metabolized,CC(=O)OCC(=O)[C@@]1(OC(C)=O)[C@@H](C)C[C@H]2[C@@H]3C[C@H](F)C4=CC(=O)C=C[C@]4(C)[C@@]3(F)[C@@H](O)C[C@@]21C [DIFLORASONE DIACETATE]
2,Compound NOT metabolized,CN(C)CCC=C1c2ccccc2COc2ccccc21 [DOXEPIN]

# Reference: ChEMBL document CHEMBL5724914, “Linking interpersonal differences in gut microbiota composition and drug biotransformation activity” (2024)
